According to the NIST ThermoML archive (doi:10.1021/je060139a):

Test: xn = mol fraction of the nth substance listed
Conditions: Wilhelmy plate method

CCOC(=O)c1ccccc1O [ethyl 2-hydroxybenzoate] + CCO
surface tension liquid-gas [mN/m]
Conditions | 288.15 K | 298.18 K | 308.15 K | 318.15 K
x1 = 0.05 | 24 | 23.17 | 22.27 | 21.3
x1 = 0.1 | 24.8 | 23.9 | 22.94 | 21.97
x1 = 0.15 | 25.5 | 24.55 | 23.55 | 22.57
x1 = 0.2 | 26.1 | 25.14 | 24.13 | 23.17
x1 = 0.25 | 26.65 | 25.65 | 24.67 | 23.7
x1 = 0.3 | 27.2 | 26.15 | 25.17 | 24.2
x1 = 0.35 | 27.7 | 26.65 | 25.62 | 24.67
x1 = 0.4 | 28.1 | 27.1 | 26.08 | 25.17
x1 = 0.45 | 28.6 | 27.55 | 26.58 | 25.7
x1 = 0.5 | 29.13 | 28.1 | 27.12 | 26.25
x1 = 0.55 | 29.71 | 28.66 | 27.68 | 26.8
x1 = 0.6 | 30.33 | 29.25 | 28.26 | 27.38
x1 = 0.65 | 31 | 29.9 | 28.9 | 28
x1 = 0.7 | 31.7 | 30.6 | 29.56 | 28.67
x1 = 0.75 | 32.5 | 31.38 | 30.3 | 29.4
x1 = 0.8 | 33.4 | 32.25 | 31.13 | 30.2
x1 = 0.85 | 34.4 | 33.18 | 32.03 | 31.1
x1 = 0.9 | 35.4 | 34.18 | 33.03 | 32.18
x1 = 0.95 | 36.4 | 35.17 | 34.07 | 33.2
x1 = 1 | 37.5 | 36.3 | 35.2 | 34.4
